The test deals with T1, human CaMKIIδ (Homo sapiens, UniProt Q13557).
T1 construct: Full-length, glutathione-S-transferase(GST)-tagged, human CaMKIIδ was purchased from Carna Biosciences; purchased Carna Biosciences (CaMKIIδ); Wako Pure Chemical Industries (calmodulin) 02-111
Put plainly: Evaluation of in vitro CaMKII inhibitory activity (binding assay, TR-FRET). The following applies: human CaMKIIδ. In a few lines:
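Inhibitors, in eight concentrations of 4-fold dilution, were incubated 1 h at room temperature with a protein–fluorescent probe premix preformed 30 min on ice, containing calmodulin and terbium anti-GST antibody. Displacement read by TR-FRET in duplicate; IC50 by logistic fitting.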
Background: In TR-FRET formats the signal depends on donor and acceptor labels being close together.

Setting [1] is: TR-FRET binding assay, class symbols A/B/C, read-out: Act (CaMKII inhibitory activity, binding assay).
The mark [2] stands for this setting: in vitro CaMKII inhibitory activity (binding assay), read-out: Act.

Where two headings read alike, the source gives them in different places.

`C[C@@H](Cn1cnnn1)Oc1cc(-c2ccn3ncc(-c4ccco4)c3n2)ccc1F` [compound 18]: the IC50 under setting [1] is < 0.01 µM.

With `COc1cc(F)cc(-c2cnc3ccc(-c4cccc(O[C@@H](C)Cn5cnnn5)n4)nn23)c1C#N` [Example 410, 4-fluoro-2-methoxy-6-[6-(6-{[(2S)-1-(1H-tetrazol-1-yl)propan-2-yl]oxy}pyridin-2-yl)imidazo[1,2-b]pyridazin-3-yl]benzonitrile], under setting [2], the IC50 was < 0.01 µM.

For the compound `C[C@@H](Cn1cnnn1)Oc1cncc(-c2ccc3ncc(-c4cc(Cl)ccc4C#N)n3n2)n1` [compound 441], under setting [2], the IC50 was < 0.01 µM.

For the compound `C[C@@H](Cn1cnnn1)Oc1cc(-c2ccc3ncc(-c4cc(C(=O)O)ccc4C#N)n3n2)ccc1F` [compound 147], under setting [1], the IC50 fell in the range of 0.01 to 0.1 µM.

Turning to `C[C@@H](Cn1cnnn1)Oc1cccc(-c2ccc3ncn(-c4cccc(C(F)F)c4C#N)c3n2)n1` [compound 397], under setting [2], the IC50 is > 0.1 µM.

Turning to `COc1cccc(-c2cnc3ccc(-c4ccc(F)c(O[C@@H](C)Cn5cnnn5)c4)nn23)n1` [compound 432], the IC50 under setting [2] is < 0.01 µM.

With `C[C@@H](Cn1cnnn1)Oc1cc(-c2ccc3ncn(-c4cccc(C(=O)N(C)C)c4C#N)c3n2)ccc1F` [compound 228], the IC50 under setting [1] was > 0.1 µM.

Regarding `C[C@@H](Cn1cnnn1)Oc1cc(-c2ccc3ncc(-c4cccc(OCCC5CCNCC5)c4C#N)n3n2)ccc1F` [compound 208], the IC50 under setting [1] is < 0.01 µM.

Take `C[C@@H](Cn1cnnn1)Oc1cccc(-c2ccc3ncc(-c4nccc(OCF)c4C#N)n3n2)c1` [Example 466, 4-(fluoromethoxy)-2-[6-(3-{[(2S)-1-(1H-tetrazol-1-yl)propan-2-yl]oxy}phenyl)imidazo[1,2-b]pyridazin-3-yl]pyridine-3-carbonitrile]: the IC50 under setting [2] was < 0.01 µM.

Regarding `COc1cc(F)cc(-n2cnc3ccc(-c4ccc(F)c(O[C@@H](C)Cn5cnnn5)n4)nc32)c1C#N` [compound 439], the IC50 under setting [2] is < 0.01 µM.

As for `COc1ccnc(-c2cnn3ccc(-c4cccc(O[C@@H](C)Cn5cnnn5)n4)nc23)c1C#N` [compound 430], under setting [2], the IC50 is > 0.1 µM.

Consider `COCCN1C(=O)c2cccc(-n3cnc4ccc(-c5ccc(F)c(O[C@@H](C)Cn6cnnn6)c5)nc43)c2C1=O` [compound 192], for which the IC50 under setting [1] was > 0.1 µM.

Take `CCN(CC)CCNC(=O)c1cccc(-c2cnn3ccc(-c4ccc(C#N)c(O[C@@H](C)Cn5cnnn5)c4)nc23)c1` [Example 1, 3-[5-(4-cyano-3-{[(2S)-1-(1H-tetrazol-1-yl)propan-2-yl]oxy}phenyl)pyrazolo[1,5-a]pyrimidin-3-yl]-N-[2-(diethylamino)ethyl]benzamide]: under setting [1], the IC50 lay in the range of 0.01 to 0.1 µM.

In the case of `C[C@@H](Cn1cnnn1)Oc1cccc(-c2ccc3ncc(-c4nc(C(F)F)ccc4C#N)n3n2)c1` [compound 388], under setting [2], the IC50 is < 0.01 µM.

Turning to `COc1ccnc(-n2cnc3ccc(-c4cccc(O[C@@H](C)Cn5cnnn5)c4)nc32)c1C#N` [compound 353], under setting [2], the IC50 is < 0.01 µM.

Regarding `Cc1ccc(C#N)c(-c2cnc3ccc(-c4cccc(O[C@@H](C)Cn5cnnn5)c4)nn23)n1` [compound 278], under setting [2], the IC50 was < 0.01 µM.

For the compound `COc1ccnc(-c2cnc3ccc(-c4cncc(O[C@@H](C)Cn5cnnn5)n4)nn23)c1C#N` [compound 429], under setting [2], the IC50 was > 0.1 µM.

For `C[C@@H](Cn1cnnn1)Oc1cc(-c2ccn3ncc(-c4ccccc4C#N)c3n2)ccc1F` [compound 28], the IC50 under setting [1] was < 0.01 µM.

For the compound `C[C@@H](Cn1cnnn1)Oc1cccc(-c2ccc3ncc(-c4cccc(F)c4C#N)n3n2)n1` [compound 419], the IC50 under setting [2] is < 0.01 µM.

Take `C[C@@H](Cn1cnnn1)Oc1cccc(-c2ccc3ncc(-c4cc(F)cn(C)c4=O)n3n2)c1` [compound 331]: the IC50 under setting [2] was < 0.01 µM.

Turning to `C[C@@H](Cn1cnnn1)Oc1cccc(-c2ccc3ncc(-c4cccnc4C#N)n3n2)c1` [compound 257, 3-[6-(3-{[(2S)-1-(1H-tetrazol-1-yl)propan-2-yl]oxy}phenyl)imidazo[1,2-b]pyridazin-3-yl]pyridine-2-carbonitrile], under setting [2], the IC50 is < 0.01 µM.
